Patent publication US9150530B2, “Esters of 4, 9-dihydroxy-naphtho [2, 3-b] furans for disease therapies” (Zhoushan Haizhongzhou Xinsheng Pharmaceuticals Co., Ltd., priority 2011, dated 2015)

Test system: A549
Test: Cell viability determination (MTT), A549
Format: cell-based
Settings: Homo sapiens, A549, lung cancer, 48 hour incubation, read-out: Drug concentrations for 50% cell viability (IC50)
Excerpt: (§1) Cell Culture: A549, DLD1, SW480, LOVO, HT-29, Hela, U-20S, MES-SA, SK-MEL-28, Panc-1, DU-145, CNE, U251, Eca-109, MGC80-3, QGY-7701, BEL-7404, PLC/PRF/5, Huh-7, and SGC-7901 cells were maintained in Dulbecco's Modified Eagle Medium (DMEM) (imported from Invitrogen, Carlsbad, Calif., USA) supplemented with 10% fetal bovine serum (FBS) (Si Ji Qing, Hangzhou, China) and 1% penicillin/streptomycin/amphotericin B (imported from Invitrogen, Carlsbad, Calif., USA).
(§2) Cell Viability Determination: Popular MTT method (Archives of Biochemistry and Biophysics, 1993, 303: 474-482) was used to screen the in vitro effects of the invented drugs. Briefly, 5000 to 10000 cells were inoculated per well in a 96-well plate. After overnight incubation, drug was added to the wells at final concentration of 10 μM, […], 2.5 μM, 1.25 μM, or 1 μM, 0.75 μM, 0.5 μM and 0.25 μM in complete culture medium. Each dose level covered 4 equivalent wells. After 48 hour incubation, one tenth volume of 5 mg/mL MTT (thiazolyl blue tetrazolium bromide, Sigma-Aldrich) stock solution was added, and incubation was continued for 2 hours. Then medium was removed and 100 μL of isopropanol solution comprising 86% isopropanol, 4% aqueous 1 N HCl and 10% aqueous SDS solution (10% in concentration) was added. The absorbance of each well at 570 nm wavelength was measured by a micro-plate reader after gentle shaking for 20 minutes. Drug concentrations of 50% cell viability (IC50) were calculated by LOGIT method.

SMILES | IC50 [nM]
CC(=O)c1cc2c(OC(=O)C(C)C)c3ccccc3c(OC(=O)C(C)C)c2o1 [compound I] | < 2500
CC(=O)c1cc2c(OC(=O)C(Cl)Cl)c3ccccc3c(OC(=O)C(Cl)Cl)c2o1 [compound VI, 2-acetyl-4,9-Bis(dichloroacetoxy)-naphtho[2,3-b]furan] | 400

Test system: DLD1
Test: Cell viability determination (MTT), DLD1
Format: cell-based
Settings: Homo sapiens, DLD-1, DLD1, colorectal cancer, 48 hour incubation, read-out: Drug concentrations for 50% cell viability (IC50)
Excerpt: as §1, §2

SMILES | IC50 [nM]
CC(=O)c1cc2c(OC(=O)C(C)C)c3ccccc3c(OC(=O)C(C)C)c2o1 [compound I] | < 2500
CC(=O)c1cc2c(OC(=O)C(Cl)Cl)c3ccccc3c(OC(=O)C(Cl)Cl)c2o1 [compound VI, 2-acetyl-4,9-Bis(dichloroacetoxy)-naphtho[2,3-b]furan] | 900

Test system: SW480
Test: Cell viability determination (MTT), SW480
Format: cell-based
Settings: Homo sapiens, SW480, colorectal cancer, 48 hour incubation, read-out: Drug concentrations for 50% cell viability (IC50)
Excerpt: as §1, §2

SMILES | IC50 [nM]
CC(=O)c1cc2c(OC(=O)C(C)C)c3ccccc3c(OC(=O)C(C)C)c2o1 [compound I] | < 2500
CC(=O)c1cc2c(OC(=O)C(Cl)Cl)c3ccccc3c(OC(=O)C(Cl)Cl)c2o1 [compound VI, 2-acetyl-4,9-Bis(dichloroacetoxy)-naphtho[2,3-b]furan] | 600

Test system: LOVO
Test: Cell viability determination (MTT), LOVO
Format: cell-based
Settings: Homo sapiens, colorectal cancer, 48 hour incubation, read-out: Drug concentrations for 50% cell viability (IC50)
Excerpt: as §1, §2

SMILES | IC50 [nM]
CC(=O)c1cc2c(OC(=O)C(C)C)c3ccccc3c(OC(=O)C(C)C)c2o1 [compound I] | 2800
CC(=O)c1cc2c(OC(=O)C(Cl)Cl)c3ccccc3c(OC(=O)C(Cl)Cl)c2o1 [compound VI, 2-acetyl-4,9-Bis(dichloroacetoxy)-naphtho[2,3-b]furan] | 1500

Test system: Hela
Test: Cell viability determination (MTT), Hela
Format: cell-based
Settings: Homo sapiens, cervical cancer, 48 hour incubation, read-out: Drug concentrations for 50% cell viability (IC50)
Excerpt: as §1, §2

SMILES | IC50 [nM]
CC(=O)c1cc2c(OC(=O)C(C)C)c3ccccc3c(OC(=O)C(C)C)c2o1 [compound I] | < 2500
CC(=O)c1cc2c(OC(=O)C(Cl)Cl)c3ccccc3c(OC(=O)C(Cl)Cl)c2o1 [compound VI, 2-acetyl-4,9-Bis(dichloroacetoxy)-naphtho[2,3-b]furan] | 400

Test system: U-20S
Test: Cell viability determination (MTT), U-20S
Format: cell-based
Settings: osteosarcoma, 48 hour incubation, read-out: Drug concentrations for 50% cell viability (IC50)
Excerpt: as §1, §2

SMILES | IC50 [nM]
CC(=O)c1cc2c(OC(=O)C(C)C)c3ccccc3c(OC(=O)C(C)C)c2o1 [compound I] | 5700
CC(=O)c1cc2c(OC(=O)C(Cl)Cl)c3ccccc3c(OC(=O)C(Cl)Cl)c2o1 [compound VI, 2-acetyl-4,9-Bis(dichloroacetoxy)-naphtho[2,3-b]furan] | 800

Test system: MES-SA
Test: Cell viability determination (MTT), MES-SA
Format: cell-based
Settings: Homo sapiens, leiomyosarcoma, 48 hour incubation, read-out: Drug concentrations for 50% cell viability (IC50)
Excerpt: as §1, §2

SMILES | IC50 [nM]
CC(=O)c1cc2c(OC(=O)C(C)C)c3ccccc3c(OC(=O)C(C)C)c2o1 [compound I] | < 2500
CC(=O)c1cc2c(OC(=O)C(Cl)Cl)c3ccccc3c(OC(=O)C(Cl)Cl)c2o1 [compound VI, 2-acetyl-4,9-Bis(dichloroacetoxy)-naphtho[2,3-b]furan] | 270

Test system: Panc-1
Test: Cell viability determination (MTT), Panc-1
Format: cell-based
Settings: Homo sapiens, Panc-1, pancreatic cancer, 48 hour incubation, read-out: Drug concentrations for 50% cell viability (IC50)
Excerpt: as §1, §2

SMILES | IC50 [nM]
CC(=O)c1cc2c(OC(=O)C(C)C)c3ccccc3c(OC(=O)C(C)C)c2o1 [compound I] | < 2500
CC(=O)c1cc2c(OC(=O)C(Cl)Cl)c3ccccc3c(OC(=O)C(Cl)Cl)c2o1 [compound VI, 2-acetyl-4,9-Bis(dichloroacetoxy)-naphtho[2,3-b]furan] | 1000

Test system: DU-145
Test: Cell viability determination (MTT), DU-145
Format: cell-based
Settings: Homo sapiens, DU-145, prostate cancer, 48 hour incubation, read-out: Drug concentrations for 50% cell viability (IC50)
Excerpt: as §1, §2

SMILES | IC50 [nM]
CC(=O)c1cc2c(OC(=O)C(C)C)c3ccccc3c(OC(=O)C(C)C)c2o1 [compound I] | < 2500
CC(=O)c1cc2c(OC(=O)C(Cl)Cl)c3ccccc3c(OC(=O)C(Cl)Cl)c2o1 [compound VI, 2-acetyl-4,9-Bis(dichloroacetoxy)-naphtho[2,3-b]furan] | 1000

Test system: CNE
Test: Cell viability determination (MTT), CNE
Format: cell-based
Settings: Homo sapiens, nasopharyngeal cancer, 48 hour incubation, read-out: Drug concentrations for 50% cell viability (IC50)
Excerpt: as §1, §2

SMILES | IC50 [nM]
CC(=O)c1cc2c(OC(=O)C(C)C)c3ccccc3c(OC(=O)C(C)C)c2o1 [compound I] | 2500
CC(=O)c1cc2c(OC(=O)C(Cl)Cl)c3ccccc3c(OC(=O)C(Cl)Cl)c2o1 [compound VI, 2-acetyl-4,9-Bis(dichloroacetoxy)-naphtho[2,3-b]furan] | 1100

Test system: U251
Test: Cell viability determination (MTT), U251
Format: cell-based
Settings: Homo sapiens, U-251, U251, glioma, 48 hour incubation, read-out: Drug concentrations for 50% cell viability (IC50)
Excerpt: as §1, §2

SMILES | IC50 [nM]
CC(=O)c1cc2c(OC(=O)C(C)C)c3ccccc3c(OC(=O)C(C)C)c2o1 [compound I] | < 2500
CC(=O)c1cc2c(OC(=O)C(Cl)Cl)c3ccccc3c(OC(=O)C(Cl)Cl)c2o1 [compound VI, 2-acetyl-4,9-Bis(dichloroacetoxy)-naphtho[2,3-b]furan] | 700

Test system: Eca-109
Test: Cell viability determination (MTT), Eca-109
Format: cell-based
Settings: Homo sapiens, Eca-109, esophageal cancer, 48 hour incubation, read-out: Drug concentrations for 50% cell viability (IC50)
Excerpt: as §1, §2

SMILES | IC50 [nM]
CC(=O)c1cc2c(OC(=O)C(C)C)c3ccccc3c(OC(=O)C(C)C)c2o1 [compound I] | 5500
CC(=O)c1cc2c(OC(=O)C(Cl)Cl)c3ccccc3c(OC(=O)C(Cl)Cl)c2o1 [compound VI, 2-acetyl-4,9-Bis(dichloroacetoxy)-naphtho[2,3-b]furan] | 800

Test system: MGC80-3
Test: Cell viability determination (MTT), MGC80-3
Format: cell-based
Settings: Homo sapiens, MGC-803, MGC80-3, stomach cancer, 48 hour incubation, read-out: Drug concentrations for 50% cell viability (IC50)
Excerpt: as §1, §2

SMILES | IC50 [nM]
CC(=O)c1cc2c(OC(=O)C(C)C)c3ccccc3c(OC(=O)C(C)C)c2o1 [compound I] | 2500
CC(=O)c1cc2c(OC(=O)C(Cl)Cl)c3ccccc3c(OC(=O)C(Cl)Cl)c2o1 [compound VI, 2-acetyl-4,9-Bis(dichloroacetoxy)-naphtho[2,3-b]furan] | 600

Test system: QGY-7701
Test: Cell viability determination (MTT), QGY-7701
Format: cell-based
Settings: QGY7701, QGY-7701, liver cancer, 48 hour incubation, read-out: Drug concentrations for 50% cell viability (IC50)
Excerpt: as §1, §2

SMILES | IC50 [nM]
CC(=O)c1cc2c(OC(=O)C(C)C)c3ccccc3c(OC(=O)C(C)C)c2o1 [compound I] | 2870

Test system: not listed separately
Test: Human plasma incubation, HPLC analysis of degradation products
Format: in vitro ADME
Settings: 20 μM in human plasma, 37° C., 2 hours
Description: The compounds of formula I were incubated in human plasma at 37° C. for 2 hours, and then the mixtures were treated with acetonitrile to remove protein and the resulting supernatants were analyzed by HPLC (FIG. 2). […] Without wishing to be bound by a particular theory, it is believed that, although not detected due to instability in a protein-free environment, the direct hydrolysis product of a compound of formula I, 4,9-dihydroxy-naphtho[2,3-b]furan, and its partially oxidized product semihydroquinone (shown in scheme 6) co-exist in vivo and play important biological roles.
HPLC column: Waters Sunfire C18, 250×4.60 mm 5 micron; Mobile phase: buffer A, 90% 5 mM potassium phosphate buffer, pH 6.8, 10% acetonitrile; buffer B, 15% 5 mM potassium phosphate buffer, pH 6.8, 85% acetonitrile; Detector: Waters 2998 Photodiode Array Detector.
Gradient B: 0-3 min, 50% buffer B, 3-5 min, 50%-100% buffer B, 5-18 min, 100% buffer B, 18-22 min, 100%-50% buffer B, 22-25 min, […]; flow rate, 1 ml/min. Analysis of the 4,9-dihydroxy-naphtho[2,3-b]furan compounds (FIG. 1)
10 mM of a compound of formula I or its analog in DMSO (however, compound VI was in DMF) was diluted with human plasma to 20 μM, and the resulting mixtures were incubated at 37° C. for 2 hours. To plasma sample, 9 times volume of acetonitrile was added. The resulting mixtures were vortexed and incubated in dry ice for 30 minutes or in −20° C. freezer for 3 hours, then centrifuged, and supernatant was used for HPLC analysis using gradient B.

SMILES | Degradation / detectable products after incubation in human plasma
CC(=O)c1cc2c(OC(=O)C(C)C)c3ccccc3c(OC(=O)C(C)C)c2o1 [compound I] | the detectable products were compound XIII and partially degraded products

Test system: not listed separately
Test: Metabolism in biological fluid (human whole blood, cancer cell lysate, liver microsomes, mouse oral uptake), HPLC
Format: in vitro ADME
Settings: liver microsomes or mouse oral uptake system, 20 μM, 37° C.
Description: Second, a major metabolite found after incubation of compound I, III, IV, VI or XIII in biological fluid, such as human whole blood, or cancer cell lysate, or liver microsomes, or mouse oral uptake system, is compound XII (FIG. 3). Similarly, a major metabolite found after incubation of compound V, VII or XIV in biological fluid is 2-(1-hydroxy-n-propyl)-naphtho[2,3-b]furan-4,9-dione (data not shown). Reduction of the position 2 substituent carbonyl group is part of quinone redox reaction as evidenced by the β-lapachone effect on the formation of compound XII in the compound XIII incubation mixture of human whole blood (part D of FIG. 3). The possible reaction mechanism is proposed as shown in scheme 7, in which the two electron reduction could be NQ01 catalyzed reduction or two successive cytochrome b5 reductase or p450 reductase catalyzed reaction. As substrate of these enzymes, β-lapachone could compete for the two electron or single electron reaction and thus reduced formation of the metabolism product.
Crystalline or amorphous solid of compound was mixed with excipient and suspended in 0.5% carboxymethylcellulose (CMC) solution in a mortar. Then the mixture was orally administered into ICR mouse at the predetermined dosage. At the predetermined time point, blood was drawn from the mouse and stored in the vial containing heparin. The blood samples were centrifuged at 6,000 rpm for 10 min, and plasmas were separated. To each plasma sample, 9 times volume of acetonitrile/methyl trifluoromethanesulfonate (1000:1) or acetonitrile/concentrated HCl (1000:1) was added. The resulting mixtures were vortexed and incubated in dry ice for 30 minutes or in −20° C. freezer for 3 hours, then centrifuged, and supernatants were separated for HPLC analysis using gradient B.
The biological systems for in vitro metabolism study include: human whole blood stabilized with sodium citrate; cancer cell lysate (obtained using freeze-thaw method, 10 mg/ml in protein concentration for use); liver microsomes with NADPH generation system (prepared according to the protocol provided by iPhase Pharma, Beijing, China);
10 mM of a compound of formula I or its analog or compound XIII in DMSO (however, compound VI was in DMF) was added into the biological system to a final concentration of 20 μM. The mixtures were incubated at 37° C. for predetermined time. To each sample, then 9 times volume of acetonitrile was added. The resulting mixtures were vortexed and incubated in dry ice for 30 minutes or in −20° C. freezer for 3 hours, then centrifuged, and supernatants were separated for HPLC analysis using gradient B.

SMILES | Major metabolite found after incubation in biological fluid
CC(=O)c1cc2c(OC(=O)C(C)C)c3ccccc3c(OC(=O)C(C)C)c2o1 [compound I] | compound XII
CC(=O)c1cc2c(OC(=O)C(Cl)Cl)c3ccccc3c(OC(=O)C(Cl)Cl)c2o1 [compound VI, 2-acetyl-4,9-Bis(dichloroacetoxy)-naphtho[2,3-b]furan] | compound XII
